Results from ChEMBL document CHEMBL1136064, “The synthesis and characterization of BMS-204352 (MaxiPost) and related 3-fluorooxindoles as openers of maxi-K potassium channels” (Bioorg Med Chem Lett, 2002).
Several values for one entry are separate records, joined by “and”; a condition that tells them apart may be missing. Identical values can stand only once. One block for each molecule: values may come before it.

Assays:
[1] = tested on: HEK293; test: Tested for the effect on whole cell maxi-K current in HEK 293 cells at 100 nM; assay type: functional, Homo sapiens; design: unit not given here
[2] = Evaluated for plasma clearance after iv administration of 5 mg/kg to male Sprague-Dawley rats; assay type: ADME, organism-based; design: dose 5 mg/kg, route intravenous; details: rat
[3] = Evaluated for half-life after iv administration of 1 mg/kg to male Sprague-Dawley rats in plasma; assay type: ADME, organism-based; design: dose 1 mg/kg, route intravenous; details: rat
[4] = Evaluated for Volume of distribution after iv administration of 5 mg/kg to male Sprague-Dawley rats; assay type: ADME, organism-based; design: dose 5 mg/kg, route intravenous; details: rat, in vivo, read-out: Volume of distribution
[5] = Evaluated for half-life after iv administration of 5 mg/kg to male Sprague-Dawley rats in plasma; assay type: ADME, organism-based; design: dose 5 mg/kg, route intravenous; details: rat
[6] = tested on: HEK293; test: Tested for the effect on whole cell maxi-K current in HEK 293 cells at 1000 nM; assay type: functional, Homo sapiens
[7] = Evaluated for AUC after iv administration of 5 mg/kg to male Sprague-Dawley rats in plasma; assay type: ADME, organism-based; design: dose 5 mg/kg, route intravenous; details: rat
[8] = Evaluated for AUC after iv administration of 5 mg/kg to male Sprague-Dawley rats in brain; assay type: ADME, organism-based; design: dose 5 mg/kg, route intravenous; details: rat
[9] = Evaluated for half-life after iv administration of 5 mg/kg to male Sprague-Dawley rats in brain; assay type: ADME, organism-based; design: dose 5 mg/kg, route intravenous; details: rat
[10] = tested on: HEK293; test: Tested for the effect on whole cell maxi-K current in HEK 293 cells at 10 nM; assay type: functional, Homo sapiens
[11] = Evaluated for AUC after iv administration of 1 mg/kg to male Sprague-Dawley rats in plasma; assay type: ADME, organism-based; design: dose 1 mg/kg, route intravenous; details: rat
[12] = Ratio of brain AUC versus plasma AUC; assay type: ADME, cell-free; details: rat
[13] = molecular target: Calcium-activated potassium channel subunit alpha-1 KCNMA1 (Homo sapiens) (UniProt Q12791); test: Evaluation of maxi-K opening in Xenopus laevis oocytes injected with Hslo1 channels as percent of control current at a concentration of 20 uM; details: Oocyte
[14] = molecular target: Calcium-activated potassium channel subunit alpha-1 KCNMA1 (Homo sapiens) (UniProt Q12791); test: Evaluation of maxi-K opening in Xenopus laevis oocytes injected with Hslo1 channels as percent of control current at 20 uM; details: Oocyte

Calcium-activated potassium channel subunit alpha-1 KCNMA1 (Homo sapiens), sequence (Q12791 whole entry, looked up): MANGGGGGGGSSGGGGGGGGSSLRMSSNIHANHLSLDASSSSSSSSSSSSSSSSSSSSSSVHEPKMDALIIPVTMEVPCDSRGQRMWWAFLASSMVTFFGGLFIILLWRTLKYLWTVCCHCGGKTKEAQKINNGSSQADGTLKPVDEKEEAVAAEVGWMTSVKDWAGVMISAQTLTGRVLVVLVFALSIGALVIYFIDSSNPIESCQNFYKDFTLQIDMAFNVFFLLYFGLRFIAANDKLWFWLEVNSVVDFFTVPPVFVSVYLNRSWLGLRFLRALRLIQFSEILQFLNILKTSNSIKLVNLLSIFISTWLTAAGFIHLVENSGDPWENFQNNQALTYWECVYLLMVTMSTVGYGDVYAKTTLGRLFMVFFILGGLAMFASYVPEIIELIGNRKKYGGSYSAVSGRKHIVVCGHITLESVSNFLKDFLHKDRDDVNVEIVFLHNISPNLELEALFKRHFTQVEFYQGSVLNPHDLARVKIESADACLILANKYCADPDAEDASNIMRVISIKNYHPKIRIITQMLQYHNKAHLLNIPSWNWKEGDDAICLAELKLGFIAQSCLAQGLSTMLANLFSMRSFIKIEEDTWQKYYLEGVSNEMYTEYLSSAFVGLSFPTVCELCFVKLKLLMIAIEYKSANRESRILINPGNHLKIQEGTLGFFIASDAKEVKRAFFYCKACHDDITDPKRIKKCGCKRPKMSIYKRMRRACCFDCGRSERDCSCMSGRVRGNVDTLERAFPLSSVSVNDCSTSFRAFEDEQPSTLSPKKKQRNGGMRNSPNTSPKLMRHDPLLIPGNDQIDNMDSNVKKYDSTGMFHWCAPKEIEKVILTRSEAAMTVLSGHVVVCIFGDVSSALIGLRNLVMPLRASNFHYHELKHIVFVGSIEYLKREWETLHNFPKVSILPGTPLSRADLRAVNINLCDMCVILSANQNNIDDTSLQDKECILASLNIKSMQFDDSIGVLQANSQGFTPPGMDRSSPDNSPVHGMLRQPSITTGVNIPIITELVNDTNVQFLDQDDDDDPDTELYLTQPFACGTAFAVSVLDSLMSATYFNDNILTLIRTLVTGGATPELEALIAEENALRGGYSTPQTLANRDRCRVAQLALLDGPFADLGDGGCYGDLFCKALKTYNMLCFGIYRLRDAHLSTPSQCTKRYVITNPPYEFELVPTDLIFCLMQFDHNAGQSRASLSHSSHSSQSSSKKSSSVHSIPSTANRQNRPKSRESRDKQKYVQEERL

clearance [2]: 51.5 mL/min/kg | half-life [3]: 1.8 h | Vd [4]: 5.8 L/kg | half-life [5]: 1.9 h | AUC [7]: 3000 ng·h/mL | AUC [8]: 28800 ng·h/mL | half-life [9]: 1.6 h | AUC [11]: 320 ng·h/mL | Kp [12]: 9.6
Compound: COc1ccc(Cl)cc1[C@]1(F)C(=O)Nc2cc(C(F)(F)F)ccc21 [FLINDOKALNER]
Maxi-K current [1]: 185.3 | Maxi-K current [6]: 247.4 | Maxi-K current [10]: 127.8

Compound: COc1ccc(Cl)cc1C1(F)C(=O)Nc2c(C(F)(F)F)cccc21 (stereo not drawn)
Maxi-K current [1]: 131.9 and 169.6

remaining activity at 20 µM [13]: 107%
Compound: O=C1Nc2cc(C(F)(F)F)ccc2C1(F)c1ccccc1 (stereo not drawn)

Compound: COc1ccc(Cl)cc1[C@@]1(F)C(=O)Nc2cc(C(F)(F)F)ccc21
Maxi-K current [1]: 164.4 | Maxi-K current [6]: 205.3 | Maxi-K current [10]: 105

remaining activity at 20 µM [14]: 100%
Compound: O=C1Nc2ccccc2C1(F)c1ccccc1 (stereo not drawn)
